# Test results from patent publication US12077503B2, “Substituted cyclic amides and their use as herbicides” (FMC CORPORATION, priority 2015, dated 2024).
# What was measured:
# Format in all cases: in vivo
# [1] = tested on: giant foxtail (Setaria faberii); assay: Test A preemergence
# Source text: (§1) Seeds of plant species selected from barnyardgrass (Echinochloa crus-galli), Kochia (Kochia scoparia), ragweed (common ragweed, Ambrosia elatior), ryegrass, Italian (Italian ryegrass, Lolium multiflorum), crabgrass, large (Digitaria sanguinalis), giant foxtail (Setaria faberii), green foxtail (Setaria viridis), morningglory (Ipomoea spp.), pigweed (Amaranthus retroflexus), velvetleaf (Abutilon theophrasti), wheat (Triticum aestivum), and corn (Zea mays) were planted into a blend of loam soil and sand and treated preemergence with a directed soil spray using test chemicals formulated in anon-phytotoxic solvent mixture which included a surfactant.
# (§2) At the same time, plants selected from these crop and weed species and also blackgrass (Alopecurus myosuroides), and Galium (catchweed bedstraw, Galium aparine) were planted in pots containing the same blend of loam soil and sand and treated with postemergence applications of test chemicals formulated in the same manner. Plants ranged in height from 2 to 10 cm and were in the one- to two-leaf stage for the postemergence treatment. Treated plants and untreated controls were maintained in a greenhouse for approximately 10 d, after which time all treated plants were compared to untreated controls and visually evaluated for injury. Plant response ratings, summarized in Table A, are based on a 0 to 100 scale where 0 is no effect and 100 is complete control. A dash (-) response means no test result.
# [2] = tested on: pigweed (Amaranthus retroflexus); assay: Test A preemergence
# Source text: as §1, §2
# Kochia (Kochia scoparia) [3] = assay: Test A preemergence
# Source text: as §1, §2
# [4] = tested on: ryegrass, Italian (Italian ryegrass, Lolium multiflorum); assay: Test A preemergence
# Source text: as §1, §2
# [5] = tested on: ragweed (common ragweed, Ambrosia elatior); assay: Test A preemergence
# Source text: as §1, §2
# [6] = tested on: barnyardgrass (Echinochloa crus-galli); assay: Test A preemergence
# Source text: as §1, §2
# [7] = tested on: giant foxtail (Setaria faberii); assay: Test A postemergence
# Source text: as §1, §2
# [8] = tested on: blackgrass (Alopecurus myosuroides); assay: Test A postemergence
# Source text: as §1, §2
# [9] = tested on: Galium (catchweed bedstraw, Galium aparine); assay: Test A postemergence
# Source text: as §1, §2
# [10] = tested on: wheat (Triticum aestivum); assay: Test A postemergence
# Source text: as §1, §2
# [11] = tested on: pigweed (Amaranthus retroflexus); assay: Test A postemergence
# Source text: as §1, §2
# Kochia (Kochia scoparia) [12] = assay: Test A postemergence
# Source text: as §1, §2
# corn (Zea mays) = assay: Test A postemergence
# Source text: as §1, §2
# [13] = tested on: ryegrass, Italian (Italian ryegrass, Lolium multiflorum); assay: Test A postemergence
# Source text: as §1, §2
# [14] = tested on: ragweed (common ragweed, Ambrosia elatior); assay: Test A postemergence
# Source text: as §1, §2
# [15] = tested on: barnyardgrass (Echinochloa crus-galli); assay: Test A postemergence
# Source text: as §1, §2
# rice (Oryra sativa) = assay: Test B flooded paddy test; settings: Flood, 250 g ai/ha; 0 to 100 scale where 0 is no effect and 100 is complete control; 13 to 15 d
# Protocol: (§3) Plant species in the flooded paddy test selected from rice (Oryra sativa), sedge, umbrella (small-flower umbrella sedge, Cyperus difformis), ducksalad (Heteranthera limosa), and barnyardgrass (Echinochloa crus-galli) were grown to the 2-leaf stage for testing. At time of treatment, test pots were flooded to 3 cm above the soil surface, treated by application of test compounds directly to the paddy water, and then maintained at that water depth for the duration of the test. Treated plants and controls were maintained in a greenhouse for 13 to 15 d, after which time all species were compared to controls and visually evaluated. Plant response ratings, summarized in Table B, are based on a scale of 0 to 100 where 0 is no effect and 100 is complete control. A dash (-) response means no test result.
# [16] = tested on: sedge, umbrella (small-flower umbrella sedge, Cyperus difformis); assay: Test B flooded paddy test; settings: Flood, 250 g ai/ha; 0 to 100 scale where 0 is no effect and 100 is complete control; 13 to 15 d
# Protocol: as §3
# [17] = tested on: ducksalad (Heteranthera limosa); assay: Test B flooded paddy test; settings: Flood, 250 g ai/ha; 0 to 100 scale where 0 is no effect and 100 is complete control; 13 to 15 d
# Protocol: as §3
# [18] = tested on: barnyardgrass (Echinochloa crus-galli); assay: Test B flooded paddy test; settings: Flood, 250 g ai/ha; 0 to 100 scale where 0 is no effect and 100 is complete control; 13 to 15 d
# Protocol: as §3
# [19] = 125 g ai/ha, preemergence, 0 to 100 scale (0 no effect, 100 complete control)
# [20] = Preemergence, 500 g ai/ha, 0 is no effect, 100 is complete control
# [21] = 500 g ai/ha, postemergence, 0 to 100 scale, 0 no effect, 100 complete control
# [22] = Postemergence, 125 g ai/ha, visual injury, 0 to 100 scale (0 no effect, 100 complete control), approx. 10 d
smiles,measurement,setting,value
Cc1ccc(C2CNC(=O)C2C(=O)Nc2ccccc2F)cc1F (racemic) [Compound 368],"Plant response rating, Foxtail, Giant",[1]; [19],90
same,"Foxtail, Giant plant response rating (0 to 100 scale)",[1]; [20],90
same,"Plant response rating, Pigweed",[2]; [19],0
same,Pigweed plant response rating (0 to 100 scale),[2]; [20],0
same,"Plant response rating, Kochia",Kochia (Kochia scoparia) [3]; [19],0
same,Kochia plant response rating (0 to 100 scale),Kochia (Kochia scoparia) [3]; [20],30
same,"Plant response rating, Ryegrass, Italian",[4]; [19],0
same,"Ryegrass, Italian plant response rating (0 to 100 scale)",[4]; [20],30
same,"Plant response rating, Ragweed",[5]; [19],30
same,Ragweed plant response rating (0 to 100 scale),[5]; [20],60
same,"Plant response rating, Barnyardgrass",[6]; [19],90
same,Barnyardgrass plant response rating (0 to 100 scale),[6]; [20],90
same,"Plant response rating, Foxtail, Giant",[7]; [21],80
same,"Plant response rating, Foxtail, Giant",[7]; [22],20
same,"Plant response rating, Blackgrass",[8]; [21],60
same,"Plant response rating, Blackgrass",[8]; [22],0
same,"Plant response rating, Galium",[9]; [21],50
same,"Plant response rating, Galium",[9]; [22],30
same,"Plant response rating, Wheat",[10]; [21],30
same,"Plant response rating, Wheat",[10]; [22],0
same,"Plant response rating, Pigweed",[11]; [21],0
same,"Plant response rating, Pigweed",[11]; [22],0
same,"Plant response rating, Kochia",Kochia (Kochia scoparia) [12]; [21],0
same,"Plant response rating, Kochia",Kochia (Kochia scoparia) [12]; [22],0
same,"Plant response rating, Corn",corn (Zea mays); [21],20
same,"Plant response rating, Corn",corn (Zea mays); [22],0
same,"Plant response rating, Ryegrass, Italian",[13]; [21],50
same,"Plant response rating, Ryegrass, Italian",[13]; [22],20
same,"Plant response rating, Ragweed",[14]; [21],30
same,"Plant response rating, Ragweed",[14]; [22],0
same,"Plant response rating, Barnyardgrass",[15]; [21],90
same,"Plant response rating, Barnyardgrass",[15]; [22],90
same,"Plant response rating, Rice",rice (Oryra sativa),15
same,"Plant response rating, Sedge, Umbrella",[16],0
same,"Plant response rating, Ducksalad",[17],100
same,"Plant response rating, Barnyardgrass",[18],55
